According to patent US20240207427A1, “SELECTIVE DRUG RELEASE FROM INTERNALIZED CONJUGATES OF BIOLOGICALLY ACTIVE COMPOUNDS” (priority 2021, published 2024):
Read-outs that look alike come from different tables or passages of the source.

Legend:
Assay type in all cases: cell-based
[1] = tested on: pancreatic cancer cells (BxPC3); test: In vitro potency (CellTiter-Glo, 96 h), BxPC3; details: Homo sapiens, BXPC-3, 96 h
Experimental: (§1) In vitro potency was assessed on multiple cancer cell lines. All cell lines were authenticated by STR profiling at IDEXX Bioresearch and cultured for no more than 2 months after resuscitation. Cells cultured in log-phase growth were seeded for 24 hours in 96-well plates containing […] RPMI 1640 supplemented with 20% FBS. Serial dilutions of antibody-drug conjugates in cell culture media were prepared at 4× working concentrations, and 50 μL of each dilution was added to the 96-well plates. Following addition of test articles, cells were incubated with test articles for 4 days at 37 0° C. After 96 hours, growth inhibition was assessed by CellTiterGlo® (Promega, Madison, WI) and luminescence was measured on a plate reader.
(§2) In Table 7, IC50 values for ADCs are given in ng/mL. Cell viability was determined by CellTiter-Glo staining after 96 h exposure to ADC. ND=Not Determined. Ag2 is an antibody targeting a ubiquitous and readily internalizable antigen. The cancer cell lines tested are renal carcinoma cells (786-0), melanoma cells (A2058), pancreatic cancer cells (BxPC3), non-small-cell lung cancer cells (Calu1), anaplastic large cell lymphoma cells (DEL, DELBVR, Karpas299), Hodgkin's lymphoma cells (L540cy), (Ls174T), breast cancer cells (MDA-MB-231), acute myeloid leukemia cells (MOLM-13), and B-lymphocyte cancer cells (SU-DHL4).
as §1, with “FBS.” for “FBS. Serial dilutions of antibody-drug conjugates in cell culture media were prepared at 4× working concentrations, and 50 μL of each dilution was added to the 96-well plates.”
(§3) Cell viability was determined by CellTiter-Glo staining after 96 h exposure to the compound. ND=Not Determined. The cancer cell lines tested are renal carcinoma cells (786-0), melanoma cells (A2058), pancreatic cancer cells (BxPC3), non-small-cell lung cancer cells (Calu1), anaplastic large cell lymphoma cells (DEL, DELBVR, Karpas299), Hodgkin's lymphoma cells (L540cy), (Ls 174T), breast cancer cells (MDA-MB-231), acute myeloid leukemia cells (MOLM-13), B-lymphocyte cancer cells (SU-DHL4), multiple myeloma cells (MM.1R), (U266), and melanoma cells (SK-MEL-5).
as §1, with “37°” for “37 0°”
(§4) In the following Tables IC50 values for ADCs and CPT free drugs are given in ng/mL and nmol/L concentrations. Cell viability was determined by CellTiter-Glo staining after 96 h exposure to ADC or CPT free drug.
(§5) Cell viability was determined by CellTiter-Glo staining after 96 h exposure to ADC. ND=Not Determined.

Ls174T cells = test: In vitro potency (CellTiter-Glo, 96 h), Ls174T; details: Homo sapiens, LS174T, 96 h
Experimental: as §1, §2
as §1, with “FBS.” for “FBS. Serial dilutions of antibody-drug conjugates in cell culture media were prepared at 4× working concentrations, and 50 μL of each dilution was added to the 96-well plates.”
as §3
as §1, with “37°” for “37 0°”
as §4, §5

[2] = tested on: anaplastic large cell lymphoma cells (DELBVR); test: In vitro potency (CellTiter-Glo, 96 h), DELBVR
Experimental: as §1, §2
as §1, with “FBS.” for “FBS. Serial dilutions of antibody-drug conjugates in cell culture media were prepared at 4× working concentrations, and 50 μL of each dilution was added to the 96-well plates.”
as §3
as §1, with “37°” for “37 0°”
as §4, §5

[3] = tested on: renal carcinoma cells (786-O); test: In vitro potency (CellTiter-Glo, 96 h), 786-O; details: Homo sapiens, 786-0, 96 h
Experimental: as §1, §2
as §1, with “FBS.” for “FBS. Serial dilutions of antibody-drug conjugates in cell culture media were prepared at 4× working concentrations, and 50 μL of each dilution was added to the 96-well plates.”
as §3
as §1, with “37°” for “37 0°”
as §4, §5

[4] = tested on: acute myeloid leukemia cells (MOLM-13); test: In vitro potency (CellTiter-Glo, 96 h), MOLM-13; details: Homo sapiens, MOLM-13, 96 h
Experimental: as §1, §2
as §1, with “FBS.” for “FBS. Serial dilutions of antibody-drug conjugates in cell culture media were prepared at 4× working concentrations, and 50 μL of each dilution was added to the 96-well plates.”
as §3
as §1, with “37°” for “37 0°”
as §4, §5

[5] = tested on: anaplastic large cell lymphoma cells (DEL); test: In vitro potency (CellTiter-Glo, 96 h), DEL
Experimental: as §1, §2
as §1, with “FBS.” for “FBS. Serial dilutions of antibody-drug conjugates in cell culture media were prepared at 4× working concentrations, and 50 μL of each dilution was added to the 96-well plates.”
as §3
as §1, with “37°” for “37 0°”
as §4, §5

[6] = tested on: anaplastic large cell lymphoma cells (Karpas299); test: In vitro potency (CellTiter-Glo, 96 h), Karpas299; details: Homo sapiens, KARPAS-299, 96 h
Experimental: as §1, §2
as §1, with “FBS.” for “FBS. Serial dilutions of antibody-drug conjugates in cell culture media were prepared at 4× working concentrations, and 50 μL of each dilution was added to the 96-well plates.”
as §3
as §1, with “37°” for “37 0°”
as §4, §5

melanoma cells (A2058) = test: In vitro potency (CellTiter-Glo, 96 h), A2058; details: Homo sapiens, A2058, 96 h, read-out: A2058 IC50
Experimental: as §1, §2
as §1, with “FBS.” for “FBS. Serial dilutions of antibody-drug conjugates in cell culture media were prepared at 4× working concentrations, and 50 μL of each dilution was added to the 96-well plates.”
as §3
as §1, with “37°” for “37 0°”
as §4, §5

[7] = tested on: B-lymphocyte cancer cells (SU-DHL4); test: In vitro potency (CellTiter-Glo, 96 h), SU-DHL-4; details: Homo sapiens, SU-DHL-4, 96 h
Experimental: as §1, §2
as §1, with “FBS.” for “FBS. Serial dilutions of antibody-drug conjugates in cell culture media were prepared at 4× working concentrations, and 50 μL of each dilution was added to the 96-well plates.”
as §3
as §1, with “37°” for “37 0°”
as §4, §5

[8] = tested on: Hodgkin's lymphoma cells (L540cy); test: In vitro potency (CellTiter-Glo, 96 h), L540cy
Experimental: as §1, §2
as §1, with “FBS.” for “FBS. Serial dilutions of antibody-drug conjugates in cell culture media were prepared at 4× working concentrations, and 50 μL of each dilution was added to the 96-well plates.”
as §3
as §1, with “37°” for “37 0°”
as §4, §5

[9] = tested on: breast cancer cells (MDA-MB-231); test: In vitro potency (CellTiter-Glo, 96 h), MDA-MB-231; details: Homo sapiens, MDA-MB-231, 96 h, CPT free drugs, breast cancer cells MDA-MB-231, 96 h, CellTiter-Glo
Experimental: as §1, §2
as §1, with “FBS.” for “FBS. Serial dilutions of antibody-drug conjugates in cell culture media were prepared at 4× working concentrations, and 50 μL of each dilution was added to the 96-well plates.”
as §3
as §1, with “37°” for “37 0°”
as §4, §5

[10] = read-out: BxPC3 IC50, Table 28, CPT free drugs, pancreatic cancer cells BxPC3, 96 h, CellTiter-Glo
[11] = read-out: Ls174T IC50, Table 28, CPT free drugs, Ls174T cells, CellTiter-Glo
[12] = read-out: DELBVR IC50, Table 28, CPT free drugs, anaplastic large cell lymphoma cells DELBVR, CellTiter-Glo
[13] = read-out: 786-O IC50, Table 28, CPT free drugs, renal carcinoma cells 786-O, 96 h, CellTiter-Glo
[14] = read-out: MOLM-13 IC50, Table 28, CPT free drugs, acute myeloid leukemia cells MOLM-13, 96 h, CellTiter-Glo
[15] = read-out: DEL IC50, Table 28, CPT free drugs, anaplastic large cell lymphoma cells DEL, CellTiter-Glo
[16] = read-out: Karpas299 IC50, Table 28, CPT free drugs, anaplastic large cell lymphoma cells Karpas299, 96 h, CellTiter-Glo
[17] = read-out: SU-DHL-4 IC50, Table 28, CPT free drugs, B-lymphocyte cancer cells SU-DHL4, 96 h, CellTiter-Glo
[18] = read-out: MDAMB231 IC50, Table 28
[19] = read-out: L540cy IC50, Table 28, CPT free drugs, Hodgkin's lymphoma cells L540cy, CellTiter-Glo
[20] = read-out: BxPC3 IC50, Table 29, CPT free drugs, pancreatic cancer cells BxPC3, 96 h, CellTiter-Glo
[21] = read-out: Ls174T IC50, Table 29, CPT free drugs, Ls174T cells, CellTiter-Glo
[22] = read-out: DELBVR IC50, Table 29, CPT free drugs, anaplastic large cell lymphoma cells DELBVR, CellTiter-Glo
[23] = read-out: 786-O IC50, Table 29, CPT free drugs, renal carcinoma cells 786-O, 96 h, CellTiter-Glo
[24] = read-out: MOLM-13 IC50, Table 29, CPT free drugs, acute myeloid leukemia cells MOLM-13, 96 h, CellTiter-Glo
[25] = read-out: DEL IC50, Table 29, CPT free drugs, anaplastic large cell lymphoma cells DEL, CellTiter-Glo
[26] = read-out: Karpas299 IC50, Table 29, CPT free drugs, anaplastic large cell lymphoma cells Karpas299, 96 h, CellTiter-Glo
[27] = read-out: SU-DHL-4 IC50, Table 29, CPT free drugs, B-lymphocyte cancer cells SU-DHL4, 96 h, CellTiter-Glo
[28] = read-out: MDAMB231 IC50, Table 29
[29] = read-out: L540cy IC50, Table 29, CPT free drugs, Hodgkin's lymphoma cells L540cy, CellTiter-Glo

SMILES | IC50 [1, 10] | IC50 (Ls174T cells; [11]) | IC50 [2, 12] | IC50 [3, 13] | IC50 [4, 14] | IC50 [5, 15] | IC50 [6, 16] | IC50 [7, 17] | IC50 [9, 18] | IC50 [8, 19] | IC50 [1, 20] | IC50 (Ls174T cells; [21]) | IC50 [2, 22] | IC50 [3, 23] | IC50 [4, 24] | IC50 [5, 25] | IC50 [6, 26] | IC50 [7, 27] | IC50 [9, 28] | IC50 [8, 29] | other results
CC[C@@]1(O)C(=O)OCc2c1cc1n(c2=O)Cc2c-1nc1cc3c(cc1c2CNCCN1CCN(C)CC1)OCO3 [Compound 7b] |  |  |  |  |  |  |  |  |  |  |  |  |  |  |  |  |  |  |  |  | IC50 ([1]; read-out: BxPC3 IC50, camptothecin free drug, 96 h): 172 nM; IC50 (Ls174T cells; read-out: Ls174T IC50, camptothecin free drug, 96 h): 77 nM; IC50 ([2]; read-out: DELBVR IC50, camptothecin free drug, 96 h): 55 nM; IC50 ([3]; read-out: 786-O IC50, camptothecin free drug, 96 h): 162 nM; IC50 ([4]; read-out: MOLM-13 IC50, camptothecin free drug, 96 h): 533 nM; IC50 ([5]; read-out: DEL IC50, camptothecin free drug, 96 h): 54 nM; IC50 ([6]; read-out: Karpas299 IC50, camptothecin free drug, 96 h): 158 nM; IC50 (melanoma cells (A2058)): 55 nM; IC50 ([7]; read-out: SU-DHL-4 IC50, camptothecin free drug, 96 h): 94 nM; IC50 ([8]; read-out: L540cy IC50, camptothecin free drug, 96 h): 87 nM
CC[C@@]1(O)C(=O)OCc2c1cc1n(c2=O)Cc2c-1nc1cc(F)c(C)c(Cl)c1c2CNC(C)=O [Compound 12a] | 2 nM | 7 nM | 0.2 nM | 1 nM | 1 nM | 0.2 nM | 1 nM | 0.4 nM | 2 nM | 0.4 nM |  |  |  |  |  |  |  |  |  |  | 
CC[C@@]1(O)C(=O)OCc2c1cc1n(c2=O)Cc2c-1nc1cc3c(cc1c2CNCCCN1CCNCC1)OCO3 [Compound 8d] |  |  |  |  |  |  |  |  |  |  | 14 nM | 19 nM | 2 nM | 15 nM | 37 nM | 2 nM | 9 nM | 6 nM | 25 nM | 6 nM | 
CC[C@@]1(O)C(=O)OCc2c1cc1n(c2=O)Cc2c-1nc1cc3c(cc1c2CNCCCN1CCN(C)CC1)OCO3 [Compound 7h] |  |  |  |  |  |  |  |  |  |  | 43 nM | 40 nM | 6 nM | 44 nM | 93 nM | 5 nM | 57 nM | 21 nM | 67 nM | 23 nM | 
CC[C@@]1(O)C(=O)OCc2c1cc1n(c2=O)Cc2c-1nc1cc(F)c(C)c(Cl)c1c2CNC(=O)CN [Compound 13a] | 5 nM | 44 nM | 1 nM | 6 nM | 2 nM | 0.3 nM | 1 nM | 1 nM | 5 nM | 1 nM |  |  |  |  |  |  |  |  |  |  | 
CC[C@@]1(O)C(=O)OCc2c1cc1n(c2=O)Cc2c-1nc1cc3c(cc1c2CNC(=O)CN)CCO3 [Compound 13] | 94 nM | 195 nM | 21 nM | 139 nM | 88 nM | 8 nM | 126 nM | 18 nM | 177 nM | 45 nM |  |  |  |  |  |  |  |  |  |  | 
CC[C@@]1(O)C(=O)OCc2c1cc1n(c2=O)Cc2c-1nc1cc3c(cc1c2CNC1CCNCC1)OCO3 [Compound 8e] |  |  |  |  |  |  |  |  |  |  | 62 nM | 109 nM | 10 nM | 104 nM | 89 nM | 7 nM | 72 nM | 25 nM | 102 nM | 36 nM | 
CC[C@@]1(O)C(=O)OCc2c1cc1n(c2=O)Cc2c-1nc1cc3c(cc1c2CN1CCN(CCN)CC1)OCO3 [Compound 8c] |  |  |  |  |  |  |  |  |  |  | 14 nM | 32 nM | 4 nM | 27 nM | 69 nM | 3 nM | 28 nM | 7 nM | 57 nM | 14 nM | 
C=C(C)c1c(C)c(F)cc2nc3c(c(CN)c12)Cn1c-3cc2c(c1=O)COC(=O)[C@]2(O)CC [Compound 2al] | 7 nM | 11 nM | 1 nM | 4 nM | 2 nM | 1 nM | 4 nM | 1 nM | 9 nM | 2 nM |  |  |  |  |  |  |  |  |  |  | 
